These results are taken from article PMC6152678, “In Vitro Comparative Study of the Inhibitory Effects of Mangiferin and Its Aglycone Norathyriol towards UDP-Glucuronosyl Transferase (UGT) Isoforms” (Molecules : A Journal of Synthetic Chemistry and Natural …, 2017).

In general, inhibition refers to the change of the read-out against control, counted positive when it falls.

One data set addresses T1, UGT1A10 (Homo sapiens, UniProt Q9HAW8).
T1 construct: purchased BD Gentest Corp. (Woburn, MA, USA); host or cells: baculovirus-infected insect cells
T1 sequence (Q9HAW8 26-530): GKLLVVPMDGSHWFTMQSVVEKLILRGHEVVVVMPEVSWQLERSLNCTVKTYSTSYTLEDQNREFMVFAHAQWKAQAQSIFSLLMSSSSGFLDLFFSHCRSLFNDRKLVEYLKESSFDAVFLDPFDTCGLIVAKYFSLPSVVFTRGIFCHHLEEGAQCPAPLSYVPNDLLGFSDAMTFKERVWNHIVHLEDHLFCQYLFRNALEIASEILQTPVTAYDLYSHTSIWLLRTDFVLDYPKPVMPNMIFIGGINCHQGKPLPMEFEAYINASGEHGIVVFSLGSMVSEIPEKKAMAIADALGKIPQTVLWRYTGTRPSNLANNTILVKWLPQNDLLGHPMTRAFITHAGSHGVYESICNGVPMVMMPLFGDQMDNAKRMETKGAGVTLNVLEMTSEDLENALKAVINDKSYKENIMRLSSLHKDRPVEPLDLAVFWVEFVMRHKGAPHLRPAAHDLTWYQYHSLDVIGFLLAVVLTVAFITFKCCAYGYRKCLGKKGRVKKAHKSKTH
The data set is described as follows: Inhibition of recombinant UGT-catalyzed 4-MU glucuronidation. It is filed as biochemical. The conditions noted are these: pH 7.4, probe 4-methylumbelliferone (4-MU), 30 μM, 100 μM compound, 4-MU probe substrate, negative = activation. As to the method: (§1) Sigma-Aldrich (St Louis, MO, USA) provided the following constituents in the incubation mixture: 4-methylumbelliferone (4-MU), 4-methylumbelliferone-β-D-glucuronide (4-MUG), Tris-HCl, 7-hydroxycoumarin, and uridine-diphosphoglucuronic acid (UDPGA) (trisodium salt). All other compounds were of high-performance liquid chromatography (HPLC) grade or of the highest grade commercially available. For enzyme sources, recombinant UGT isoforms expressed in baculovirus-infected insect cells were purchased from BD Gentest Corp. (Woburn, MA, USA), including UGT1A1, 1A3, 1A6, 1A7, 1A8, 1A9, 1A10, 2B4, 2B7, 2B15, and 2B17.
(§2) 4-MU, a nonspecific probe substrate for all the UGT isoforms, was employed to investigate the inhibition of MEF and NIR towards the activity of UGT isoforms. The incubation and analytical methods have been previously described. […] MEF and NIR were dissolved in the DMSO to make a stock solution of 20 mM, and various concentrations of working solutions were prepared through dilution with DMSO. 4-MU was used as a non-selective substrate of UGTs. There was a 5-min pre-incubation step at 37 °C before the reaction was initiated by the addition of UDPGA. 4-MU and inhibitors were previously dissolved in DMSO, and the total concentration of DMSO was 1%. The reactions were continued at 37 °C for 120 min for UGT1A1, UGT1A3, UGT1A10, UGT2B4, UGT2B7, UGT2B15 and UGT2B17, 30 min for UGT1A6, UGT1A7, UGT1A8, and UGT1A9, respectively. Reactions were terminated by the addition of 100 μL acetonitrile with 7-hydroxycoumarin (100 μM) as internal standard. The incubation mixtures were then centrifuged at 12,000 r/min for 10 min. 2 μL supernatant was injected into the UPLC system for analysis. An ACQUITY UPLC System (Waters, Milford, MA, USA) equipped with UV detector was used to analyze the samples, and the separation of all the compounds were carried out using a ACQUITY UPLC® BEH C18 (2.1 × 100 mm, 1.7 μm Waters) at a flow rate of 0.2 mL/min and UV detector at 316 nm. The mobile phase was consisted of ultrapure water containing 0.5% formic acid (A) and acetonitrile (B). The following gradient condition was used: 0–3.5 min, 10–65% B; 3.5–4.0 min, 65% B; 4.0–9.0 min, 10% B. To calculate the standard curve 0.1–100 μM of 4-MUG was used through drawing the peak area ration of 4-MUG/internal standard towards the concentration range of 4-MUG. The curve was linear over this concentration range, with an r^2 value > 0.99.
(§3) The inhibition type and Kinetics were determined for the inhibition of NTR towards UGT1A3, UGT1A7 and UGT1A9. The glucuronidation velocity of 4-MU was determined at multiple concentrations of 4-MU and NTR. Dixon and Lineweaver–Burk plots were employed to determine the inhibition type, and the second plot of the slopes from the Lineweaver–Burk plot versus the compound concentrations was utilized to calculate the Ki value. The determination of IC50 was calculated using Probit analysis in SPSS11.5 (SPSS, Chicago, IL, USA). The Student’s t-test was adopted at a significance level of p < 0.05 to determine statistically significant differences among experimental groups.

In another data set the target is T2, UGT2B4 (Homo sapiens, UniProt P06133).
T2 construct: purchased BD Gentest Corp. (Woburn, MA, USA); host or cells: baculovirus-infected insect cells
T2 sequence (P06133 24-528): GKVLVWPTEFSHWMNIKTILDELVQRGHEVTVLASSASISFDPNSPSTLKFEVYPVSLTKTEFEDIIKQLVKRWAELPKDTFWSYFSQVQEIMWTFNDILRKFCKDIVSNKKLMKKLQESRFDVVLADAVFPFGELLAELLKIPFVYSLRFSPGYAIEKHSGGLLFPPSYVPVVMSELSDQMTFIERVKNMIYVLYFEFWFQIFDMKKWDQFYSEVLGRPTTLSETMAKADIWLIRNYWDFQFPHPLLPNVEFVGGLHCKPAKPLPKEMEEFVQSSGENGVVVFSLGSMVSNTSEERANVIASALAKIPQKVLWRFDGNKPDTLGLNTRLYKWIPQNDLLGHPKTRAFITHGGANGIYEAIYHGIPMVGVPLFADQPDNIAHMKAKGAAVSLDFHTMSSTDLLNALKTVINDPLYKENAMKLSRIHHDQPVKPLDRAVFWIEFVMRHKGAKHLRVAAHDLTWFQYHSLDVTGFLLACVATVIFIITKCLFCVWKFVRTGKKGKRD
Described as above. The class given is biochemical. The conditions noted are these: pH 7.4, probe 4-methylumbelliferone (4-MU), 1000 μM, 100 μM compound, 4-MU probe substrate, negative = activation. The procedure: as §1, §2, §3

On to `O=c1c2cc(O)c(O)cc2oc2cc(O)c([C@@H]3O[C@H](CO)[C@@H](O)[C@H](O)[C@H]3O)c(O)c12` [MGF, 1,3,6,7-tetrahydroxyxanthone-C-2-β-D-glucoside], for which the inhibition at 120 min, 100 µM was -86.4% at UGT1A10 and -61.9% on UGT2B4.
For `O=c1c2cc(O)c(O)cc2oc2cc(O)cc(O)c12` [NTR, 1,3,6,7-tetrahydroxyxanthone], in that order: -272% and -5.5%.
